Among the data in ChEMBL document CHEMBL1151333, “A new indole derivative from the red alga Chondria atropurpurea. Isolation, structure determination, and anthelmintic activity” (J Nat Prod, 1998) are EC50 values, retold here.

In the test the test system is Nippostrongylus brasiliensis. Description: Anthelmintic activity against Nippostrongylus brasiliensis L4 parasitant on day 5 by double serial dilution model. The test is classed as functional, organism-based. To be noted: 120 h.
For orientation: EC50 means the concentration needed to bring the measured effect to its halfway point. High values mean a less potent agent, low ones a more potent agent. For `NC(=O)/C=C/c1c[nH]c2ccccc12`, the EC50 was 2370 µM.

`O=C(/C=C/c1c[nH]c2ccccc12)N/C=C\c1c[nH]c2ccccc12` [CHONDRIAMIDE C] showed an EC50 of 90 µM. For the compound `O=C(/C=C/c1c[nH]c2ccccc12)N/C=C/c1c[nH]c2ccccc12` [CHONDRIAMIDE A], the EC50 was 260 µM. `COc1cccc2c(/C=C/C(=O)N/C=C/c3cn(C)c4ccccc34)cn(C)c12`: a half-maximal effect (EC50) was put at 300 µM.
